Results from ChEMBL document CHEMBL1201862, “PubChem BioAssay data set” (2004).
Calls of active or inactive are those of the source.

Assays:
Bcl-2-like protein 1 = Bcl-2-like protein 1 (Homo sapiens, UniProt Q07817); assay: blockers of BCLXL peptide binding – biochemical, fluorescence polarization, 1536-well, selectivity assay for MCL1 inhibitor project, dose response (AID 2218)
[1] = target: Induced myeloid leukemia cell differentiation protein Mcl-1 (Homo sapiens, UniProt Q07820); assay: blockers of MCL1 binding to BIM peptide – biochemical, fluorescence polarization, BIM-BH3 peptide, 1536-well, dose response (AID 2217)
Induced myeloid leukemia cell differentiation protein Mcl-1, sequence (Q07820 whole entry): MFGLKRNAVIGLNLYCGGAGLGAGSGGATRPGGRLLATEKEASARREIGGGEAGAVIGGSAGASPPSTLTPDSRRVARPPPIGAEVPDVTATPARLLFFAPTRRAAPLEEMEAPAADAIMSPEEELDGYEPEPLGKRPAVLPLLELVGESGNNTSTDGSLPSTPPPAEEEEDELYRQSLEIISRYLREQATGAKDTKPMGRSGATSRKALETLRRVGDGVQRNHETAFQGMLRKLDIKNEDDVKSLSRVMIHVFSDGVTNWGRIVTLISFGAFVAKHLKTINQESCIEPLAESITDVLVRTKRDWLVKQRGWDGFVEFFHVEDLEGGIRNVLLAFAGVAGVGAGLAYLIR

Protein Tat = target: T1, Protein Tat (Human immunodeficiency virus type 1 group M subtype B (isolate HXB2)(HIV-1), UniProt P04608); assay type: functional;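 further: tat binding to TAR RNA read out by fluorescence polarization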
T1 sequence (P04608 whole entry): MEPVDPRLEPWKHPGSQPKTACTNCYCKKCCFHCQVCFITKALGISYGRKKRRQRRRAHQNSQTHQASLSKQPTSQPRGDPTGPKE

Large T antigen = Large T antigen (Simian virus 40, UniProt P03070); assay type: functional, Betapolyomavirus macacae;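 further: Confirmatory-stage PubChem screen for compounds that inhibit SV40 T antigen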
Large T antigen, sequence (P03070 whole entry): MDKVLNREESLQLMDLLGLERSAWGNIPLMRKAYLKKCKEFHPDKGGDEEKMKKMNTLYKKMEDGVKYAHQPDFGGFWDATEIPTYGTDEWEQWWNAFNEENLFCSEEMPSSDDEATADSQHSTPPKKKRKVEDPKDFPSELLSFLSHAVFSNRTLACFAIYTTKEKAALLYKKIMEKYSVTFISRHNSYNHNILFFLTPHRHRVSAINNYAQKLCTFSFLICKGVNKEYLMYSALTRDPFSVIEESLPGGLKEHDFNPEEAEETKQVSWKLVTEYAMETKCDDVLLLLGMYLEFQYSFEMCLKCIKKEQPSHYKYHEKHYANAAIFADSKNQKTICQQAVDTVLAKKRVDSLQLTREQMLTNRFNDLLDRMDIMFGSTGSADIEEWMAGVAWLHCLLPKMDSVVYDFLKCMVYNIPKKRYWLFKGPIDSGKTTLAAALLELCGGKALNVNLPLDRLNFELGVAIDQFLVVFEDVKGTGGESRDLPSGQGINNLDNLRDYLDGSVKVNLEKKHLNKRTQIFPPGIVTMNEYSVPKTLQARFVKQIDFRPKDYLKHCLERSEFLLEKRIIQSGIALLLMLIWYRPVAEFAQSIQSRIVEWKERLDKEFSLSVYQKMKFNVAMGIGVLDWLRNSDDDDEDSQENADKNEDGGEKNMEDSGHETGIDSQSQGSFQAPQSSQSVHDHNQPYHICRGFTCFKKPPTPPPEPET

[2] = target: Heat shock protein HSP 90-alpha (Homo sapiens, UniProt P07900); assay type: functional, organism-based
[3] = NIH3T3 cell viability loss – ATP luminescence, mouse fibroblasts, counter-screen, dose response (AID 2010); assay type: functional, cell-based;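 further: cells exposed to compound for about 90 hours before reading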
[4] = target: T2, Mannose-6-phosphate isomerase (Homo sapiens, UniProt P34949); assay: MPI inhibition at elevated mannose 6-phosphate – biochemical, fluorescence intensity, high mannose 6-phosphate, primary screen (AID 1220)
T2 sequence (P34949 whole entry): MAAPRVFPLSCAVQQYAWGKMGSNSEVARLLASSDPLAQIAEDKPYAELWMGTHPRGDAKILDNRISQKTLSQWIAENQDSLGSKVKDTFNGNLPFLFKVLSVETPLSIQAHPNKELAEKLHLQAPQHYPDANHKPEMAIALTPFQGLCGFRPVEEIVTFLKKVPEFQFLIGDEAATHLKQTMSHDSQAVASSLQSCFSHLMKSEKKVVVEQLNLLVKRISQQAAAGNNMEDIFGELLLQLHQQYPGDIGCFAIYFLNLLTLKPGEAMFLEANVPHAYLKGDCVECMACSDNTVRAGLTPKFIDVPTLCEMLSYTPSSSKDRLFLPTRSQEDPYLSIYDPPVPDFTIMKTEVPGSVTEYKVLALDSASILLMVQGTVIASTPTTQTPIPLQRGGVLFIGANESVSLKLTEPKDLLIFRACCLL

[5] = target: T3, Short transient receptor potential channel 4 (Mus musculus, UniProt Q9QUQ5); assay: block of DAMGO-driven TRPC4 calcium entry – cell-based, HEK293 TRPC4/mu-opioid, Fluo-4 calcium, dose response (AID 434942); assay type: functional;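 further: potency of inhibitors blocking the TRPC4 calcium response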
T3 sequence (Q9QUQ5 whole entry): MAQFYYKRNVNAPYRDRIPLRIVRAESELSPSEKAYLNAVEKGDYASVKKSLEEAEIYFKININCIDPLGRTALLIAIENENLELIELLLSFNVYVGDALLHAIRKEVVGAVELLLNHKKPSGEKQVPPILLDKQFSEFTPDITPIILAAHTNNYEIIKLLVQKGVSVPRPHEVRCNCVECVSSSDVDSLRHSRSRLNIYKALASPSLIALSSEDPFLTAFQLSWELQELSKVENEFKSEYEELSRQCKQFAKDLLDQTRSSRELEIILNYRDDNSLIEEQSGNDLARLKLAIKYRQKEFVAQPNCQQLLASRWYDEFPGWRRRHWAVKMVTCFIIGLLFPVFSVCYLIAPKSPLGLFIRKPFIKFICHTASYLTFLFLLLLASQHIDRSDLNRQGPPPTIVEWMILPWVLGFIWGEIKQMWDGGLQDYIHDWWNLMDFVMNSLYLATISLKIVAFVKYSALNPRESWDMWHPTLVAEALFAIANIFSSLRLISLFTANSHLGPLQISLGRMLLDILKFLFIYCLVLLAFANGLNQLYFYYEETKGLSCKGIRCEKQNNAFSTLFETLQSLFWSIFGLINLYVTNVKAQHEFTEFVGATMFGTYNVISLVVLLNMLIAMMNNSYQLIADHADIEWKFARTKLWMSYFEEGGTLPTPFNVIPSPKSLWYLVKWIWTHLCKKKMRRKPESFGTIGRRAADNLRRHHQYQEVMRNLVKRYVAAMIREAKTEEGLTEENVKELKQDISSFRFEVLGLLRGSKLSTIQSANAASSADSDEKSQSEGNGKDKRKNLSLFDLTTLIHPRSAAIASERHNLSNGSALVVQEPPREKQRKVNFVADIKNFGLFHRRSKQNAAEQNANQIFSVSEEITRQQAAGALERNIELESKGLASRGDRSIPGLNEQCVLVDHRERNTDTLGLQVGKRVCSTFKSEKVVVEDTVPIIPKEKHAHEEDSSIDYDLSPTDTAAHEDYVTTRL

[6] = viability loss of HPDE-C7K cells – cell-based, fluorescence, HTS, primary screen (AID 431); assay type: functional; conditions: Homo sapiens
Cytochrome P450 2C19 = Cytochrome P450 2C19 (Homo sapiens, UniProt P33261); assay: Cytochrome panel assay with activity outcomes. Panel member name: p450-cyp2c19 Compounds with AC50 equal or less than 10 uM are considered active; assay type: functional; conditions: read-out: AC50
Cytochrome P450 2C19, sequence (P33261 whole entry): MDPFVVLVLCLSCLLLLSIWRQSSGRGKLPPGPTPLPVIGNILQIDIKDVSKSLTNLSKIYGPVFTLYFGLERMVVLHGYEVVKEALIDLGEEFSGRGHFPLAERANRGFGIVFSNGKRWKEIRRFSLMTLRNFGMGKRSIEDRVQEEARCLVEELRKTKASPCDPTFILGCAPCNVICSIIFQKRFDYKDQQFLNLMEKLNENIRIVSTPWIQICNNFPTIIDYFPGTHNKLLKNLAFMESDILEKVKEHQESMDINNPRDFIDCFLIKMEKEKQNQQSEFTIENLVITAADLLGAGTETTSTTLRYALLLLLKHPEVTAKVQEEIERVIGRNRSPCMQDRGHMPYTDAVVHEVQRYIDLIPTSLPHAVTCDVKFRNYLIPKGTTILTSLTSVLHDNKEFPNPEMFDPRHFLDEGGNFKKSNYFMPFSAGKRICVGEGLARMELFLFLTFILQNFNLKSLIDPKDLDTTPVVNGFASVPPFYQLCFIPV

[7] = viability of PTEN-deleted HCT116 cells – cell-based, HCT116 PTEN knockout, dose response (AID 1047); assay type: functional;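 further: HCT116 colon tumor cells with PTEN knocked out; cells exposed to compound for 60 hours before readout; potency for loss of cell viability measured by luminescence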
Streptococcus = assay: GAS UMAA2166 growth inhibition – luminescence, BacTiterGlo, counter-screen for streptokinase expression inhibitor project, dose response (AID 1915); assay type: functional, organism-based;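 further: potency for reduction of bacterial viability or growth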
[8] = HPDE-C7 pancreatic duct cell viability loss – fluorescence, HTS (AID 430); assay type: functional, cell-based; conditions: Homo sapiens
[9] = tested on: Streptococcus sp. 'group A'; assay: Streptococcus pyogenes SK(-)GAS viability under kanamycin – luminescence, BacTiterGlo, confirmation, counter-screen for streptokinase expression inhibitor project, dose response (AID 1900); assay type: functional, organism-based
Nonstructural protein 1 = Nonstructural protein 1 (Influenza A virus, UniProt Q194T2); assay type: functional, Influenza A virus (A/California/07/2009(H1N1))
Nonstructural protein 1, sequence (Q194T2 whole entry): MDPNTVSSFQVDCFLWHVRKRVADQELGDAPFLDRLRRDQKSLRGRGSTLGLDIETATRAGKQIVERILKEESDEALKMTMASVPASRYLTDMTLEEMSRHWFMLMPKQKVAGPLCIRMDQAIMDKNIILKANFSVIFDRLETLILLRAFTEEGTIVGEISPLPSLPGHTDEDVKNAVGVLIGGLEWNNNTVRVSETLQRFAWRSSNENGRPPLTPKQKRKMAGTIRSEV

[10] = viability of HCT116 lacking mutant beta-catenin – cell-based, human colon tumor, dose response (AID 1045); assay type: functional;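 further: HCT116 colon tumor cells with beta catenin knocked out; cells exposed to compound for 60 hours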
[11] = Luminescence Cell-Based Dose Response HTS to Identify Inhibitors of 5'UTR Stem-Loop Driven Prion Protein mRNA Translation in H4 Neuroglioblastoma Cells. [Related pubchem assays: 1827 (Project Summary), 1813 (Primary HTS)]; assay type: functional
[12] = luciferase reporter signal suppression in cells – H4 neuroglioma cells, luminescence, dose response (AID 1990); assay type: functional, cell-based
[13] = alpha-synuclein stem-loop luciferase translation blockers – H4 neuroglioma cells, luminescence, confirmation (AID 1988); assay type: functional, cell-based
[14] = Trypanosoma cruzi growth suppression in host cells – NIH3T3 host cells, beta-gal luminescence, confirmation (AID 2044); assay type: functional, cell-based;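 further: intracellular parasites grown in NIH/3T3 mouse fibroblasts as host cells; luminescent beta-galactosidase reporter signal from transgenic T. cruzi replicating inside host cells; inhibitors lower the luminescence signal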

Bcl-2-like protein 1, sequence (Q07817 whole entry): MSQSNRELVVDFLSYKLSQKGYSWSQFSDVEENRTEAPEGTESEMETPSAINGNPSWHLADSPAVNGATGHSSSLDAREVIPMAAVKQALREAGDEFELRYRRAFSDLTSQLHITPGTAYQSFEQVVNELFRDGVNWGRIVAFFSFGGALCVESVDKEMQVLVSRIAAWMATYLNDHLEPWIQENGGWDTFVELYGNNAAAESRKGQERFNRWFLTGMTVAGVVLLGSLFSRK

SMILES	IC50 (Bcl-2-like protein 1)	IC50 [1]	IC50 (Protein Tat)	IC50 (Large T antigen)	AC50 [2]	EC50 [3]	IC50 [4]	EC50 [5]	EC50 [6]	AC50 (Cytochrome P450 2C19)	EC50 [7]	EC50 (Streptococcus)	EC50 [8]	EC50 [9]	IC50 (Nonstructural protein 1)	EC50 [10]	EC50 [11]	EC50 [12]	EC50 [13]	EC50 [14]
O=C1NC(=O)N(c2cccc(Cl)c2)C(=O)/C1=C\c1ccc(Sc2nc3ccccc3[nH]2)o1	> 12.1 µM (not active)	8.64 µM (active)	> 100 µM (active)	66.2 µM (active)																
Oc1c(CN2CCCCC2)cc(Br)c2cccnc12					6.04 µM (active)	6.38 µM (active)	15 µM (active)	4.22 µM (active)	10.4 µM (active)	39.8 µM (inconclusive)	1.95 µM (active)	10.7 µM (active)	7.75 µM (active)	3.42 µM (active)	3.55 µM (active)	1.64 µM (active)	1.63 µM (active)	5.98 µM (active)	4.28 µM (active)	1.16 µM (active)
